Measurements published in patent US20210361600A1, “METHODS FOR INDUCING CHONDROGENESIS” (THE SCRIPPS RESEARCH INSTITUTE, priority 2017, published 2021).

Assays:
FLNA FC-1 fragment = test: In vitro FLNA binding (competition with biotin-KGN-azide probe); settings: 25 μM compound A, 0.5 μM BKA, FC-1 fragment 10 μg/mL, 1 hr
Text: The biological mechanism of kartogenin (KGN) was elucidated through synthesis of a biotin-kartogenin-azide (BKA) affinity probe which was used as a tool to identify the subsequent interaction with FLNA.

CBFβ = CBFβ nuclear localization in hMSCs (Western blotting); type: cell-based, human; settings: hMSCs, 1, 10 and 100 nM, 1 hour
Protocol: Primary human MSCs were obtained from Cell Applications. The hMSCs were grown in Mesenchymal Stem Cell expansion media and used between passage 2 and 8 for all experiments. Nuclear cell lysate fractionation and western blotting
The cells were scraped off the dishes mechanically, and pipetted gently to break the cell debris. The cell lysate was centrifuged at 2000 rpm at 4° C. for 5 min and the supernatant was saved as the cytosolic fraction. The pellet was washed with washing buffer (20 mM HEPES, pH 7.9, 20% glycerol, 0.2 mM EDTA, 1 mM DTT and protease inhibitor cocktail) once and centrifuged at 2000 rpm for 5 min. The supernatant was discarded, the pellets were suspended in nuclear extraction buffer (2 mM HEPES, pH7.9, 400 mM NaCl, 20% glycerol, 0.2 mM EDTA, 1 mM DTT and protease inhibitor cocktail) and then incubated on ice for 45 min. The mixture was centrifuged at 13,000 rpm for 15 min at 4° C., and the supernatant was saved as nuclear fraction.
Proteins were resolved using SDS-PAGE gel electrophoresis, transferred to a PVDF membrane using semi-dry blotting cell. The membrane was blocked in blocking buffer (LiCor) for 1 hr at room temperature, followed by incubation with primary antibody in blocking buffer at 4° C. overnight. […]

SOX9 = test: In vitro chondrogenesis, transcript level by qPCR; type: cell-based, human; settings: for Induction of SOX9: 7-day treatment
Protocol: (§1) The RNA was exacted using RNeasy kit following the manufacturer's protocol. cDNA was synthesized using SuperScript III first strand synthesis kit and the transcript levels of proteoglycan 4 (PRG4), sex-determining region Y-Box 9 ([…]) and cartilage-oligo matrix protein (COMP) were determined using Taqman gene expression assays (probes) from ThermoFisher.
(§2) ΔΔCT method was applied to calculate the relative abundance of each gene using ([…] as normalizing control using ViiA 7 RUO software (ThermoFisher). The abundance of each gene of each sample was expressed as fold over DMSO-treated controls. n=3. Dose response for each marker gene was analyzed using GraphPad Prism 7 software.

[1] = system: cartilage-oligo matrix protein (COMP); test: In vitro chondrogenesis, transcript level by qPCR; type: cell-based, human; settings: for Induction of COMP: 7-day treatment
Protocol: as §1, §2

proteoglycan 4 (PRG4) = test: In vitro chondrogenesis, transcript level by qPCR; type: cell-based, human; settings: for Induction of PRG4: 7-day treatment
Protocol: as §1, §2

in vivo [2] = settings: Crl:CD(SD), rat
in vivo [3] = settings: dog, iv; for AUC(0-t): AUC0-t
[4] = Intra-articular acute toxicity study in Crl:CD(SD) rat (toxicokinetics); settings: for Tlast: male rats, median
[5] = dose increment of 5.7 fold (from 2.1 to 12 μg)
[6] = male, Crl:CD(SD), rat, plasma, 12 ug

## COCCc1ccc(NC(=O)c2ccccc2NS(C)(=O)=O)cc1 [Compound A, N-(4-(2-methoxyethyl)phenyl)-2-(methylsulfonamido)benzamide]
FLNA FC-1 fragment
  ability of the biotin-KGN-azide probe to bind to the FC-1 fragment of FLNA: inhibited
CBFβ
  CBFβ levels in the nuclear fraction: increase
SOX9; 0.457 nM
  Induction of SOX9: 1.022 ± 0.231 fold increase
SOX9; 1.37 nM
  Induction of SOX9: 1.002 ± 0.260 fold increase
SOX9; 4.11 nM
  Induction of SOX9: 3.296 ± 0.719 fold increase
SOX9; 12.3 nM
  Induction of SOX9: 2.505 ± 0.242 fold increase
SOX9; 37.0 nM
  Induction of SOX9: 1.768 ± 0.264 fold increase
SOX9; 111 nM
  Induction of SOX9: 1.977 ± 0.721 fold increase
SOX9; 333 nM
  Induction of SOX9: 4.193 ± 0.765 fold increase
SOX9; 168 h, primary human MSCs, 7 days, read-out: EC50 (SOX9 induction)
  EC50: ~2.2 nM
[1]; 0.457 nM
  Induction of COMP: 1.005 ± 0.100 fold increase
[1]; 1.37 nM
  Induction of COMP: 0.776 ± 0.107 fold increase
[1]; 4.11 nM
  Induction of COMP: 1.322 ± 0.804 fold increase
[1]; 12.3 nM
  Induction of COMP: 2.942 ± 0.575 fold increase
[1]; 37.0 nM
  Induction of COMP: 1.356 ± 0.590 fold increase
[1]; 111 nM
  Induction of COMP: 0.706 ± 0.193 fold increase
[1]; 333 nM
  Induction of COMP: 1.896 ± 0.187 fold increase
[1]; 1000 nM
  Induction of COMP: 3.121 ± 0.709 fold increase
[1]; 168 h, primary human MSCs, 7 days, read-out: EC50 (COMP induction)
  EC50: ~4.5 nM
Proteoglycan 4 (PRG4); 0.457 nM
  Induction of PRG4: 1.082 ± 0.493 fold increase
Proteoglycan 4 (PRG4); 1.37 nM
  Induction of PRG4: 0.582 ± 0.513 fold increase
Proteoglycan 4 (PRG4); 4.11 nM
  Induction of PRG4: 1.795 ± 0.561 fold increase
Proteoglycan 4 (PRG4); 12.3 nM
  Induction of PRG4: 2.226 ± 0.378 fold increase
Proteoglycan 4 (PRG4); 37.0 nM
  Induction of PRG4: 1.204 ± 0.360 fold increase
Proteoglycan 4 (PRG4); 111 nM
  Induction of PRG4: 1.024 ± 0.700 fold increase
Proteoglycan 4 (PRG4); 333 nM
  Induction of PRG4: 2.22 ± 0.960 fold increase
Proteoglycan 4 (PRG4); 1000 nM
  Induction of PRG4: 2.134 ± 0.785 fold increase
Proteoglycan 4 (PRG4); 168 h, primary human MSCs, 7 days, read-out: EC50 (PRG4 induction)
  EC50: ~3.9 nM
In vivo [2]; both
  time up to which quantifiable in the plasma of all animals: at least 2 hours
In vivo [2]; female, 70 ug/kg
  AUC(0-t): 20.3 ng·h/mL
  Cmax: 11.6 ng/mL
In vivo [2]; female, 70 ug/kg, AUC0-t
  AUC(0-t): 18.5 ng·h/mL
In vivo [2]; female, 70 ug/kg, Cmax
  Cmax: 19.5 ng/mL
In vivo [2]; female, 140 ug/kg
  AUC(0-t): 52.3 ng·h/mL
  Cmax: 34.5 ng/mL
In vivo [2]; female, 140 ug/kg, AUC0-t
  AUC(0-t): 43.5 ng·h/mL
In vivo [2]; female, 140 ug/kg, Cmax
  Cmax: 42.3 ng/mL
In vivo [2]; female, 200 ug/kg
  AUC(0-t): 64.9 ng·h/mL
In vivo [2]; female, 200 ug/kg, AUC0-t
  AUC(0-t): 39.3 ng·h/mL
In vivo [2]; female, 200 ug/kg, Cmax
  Cmax: 59.8 ng/mL
In vivo [2]; male, 70 ug/kg
  AUC(0-t): 8.14 ng·h/mL
  Cmax: 8.41 ng/mL
In vivo [2]; male, 70 ug/kg, AUC0-t
  AUC(0-t): 8.33 ng·h/mL
In vivo [2]; male, 70 ug/kg, Cmax
  Cmax: 8.24 ng/mL
In vivo [2]; male, 140 ug/kg
  AUC(0-t): 18.4 ng·h/mL
  Cmax: 18.6 ng/mL
In vivo [2]; male, 140 ug/kg, AUC0-t
  AUC(0-t): 15.4 ng·h/mL
In vivo [2]; male, 140 ug/kg, Cmax
  Cmax: 23.5 ng/mL
In vivo [2]; male, 200 ug/kg
  AUC(0-t): 35.5 ng·h/mL
In vivo [2]; male, 200 ug/kg, AUC0-t
  AUC(0-t): 22.9 ng·h/mL
In vivo [2]; male, 200 ug/kg, Cmax
  Cmax: 33.9 ng/mL
In vivo [3]; both, beagle
  half-life: 38.4 to 55.8 min
In vivo [3]; female, Beagle, 0.125 mg/kg
  AUC(0-t): 131 ng·h/mL
  Cmax: 181 ng/mL
In vivo [3]; female, Beagle, 0.6 mg/kg
  AUC(0-t): 1230 ng·h/mL
  Cmax: 1330 ng/mL
In vivo [3]; female, Beagle, 1.25 mg/kg
  AUC(0-t): 2150 ng·h/mL
  Cmax: 2460 ng/mL
In vivo [3]; female, beagle
  Vd: 0.534 to 0.855 L/kg
  clearance: 8.2 to 16.4 mL/min/kg
In vivo [3]; female, beagle, 0.125 mg/kg
  AUC(0-t): 178 ng·h/mL
In vivo [3]; female, beagle, 0.6 mg/kg
  AUC(0-t): 1200 ng·h/mL
In vivo [3]; male, beagle
  Vd: 0.44 to 0.692 L/kg
  clearance: 7.25 to 11.4 mL/min/kg
In vivo [3]; male, beagle, 0.125 mg/kg
  AUC(0-t): 181 ng·h/mL
  Cmax: 308 ng/mL
In vivo [3]; male, beagle, 0.6 mg/kg
  AUC(0-t): 1190 ng·h/mL
  Cmax: 2100 ng/mL
In vivo [3]; male, beagle, 1.25 mg/kg
  AUC(0-t): 2600 ng·h/mL
  Cmax: 2580 ng/mL
[4]; [5]
  increase in mean AUC0-t: 2 fold
  increase in mean Cmax: 2 fold
[4]; single IA dose 2.1 μg/knee, plasma
  Tlast: 2.00 h
[4]; single IA dose 12 μg/knee, plasma
  Tlast: 2.00 h
[4]; male, Crl:CD(SD), rat, plasma, 2.1 ug
  AUC(0-t): 12.1 ng·h/mL
[4]; [6]
  AUC(0-t): 23.9 ng·h/mL
  Cmax: 27.8 ng/mL
